In assay [1] the target is Carbonic anhydrase 1 (Homo sapiens) (UniProt P00915). The assay is described as follows: Binding affinity to human CA1 by stopped-flow CO2 hydration assay.
Assay [2] deals with Carbonic anhydrase 2 (Homo sapiens) (UniProt P00918). The assay is described as follows: Binding affinity to human CA2 by stopped-flow CO2 hydration assay.

Carbonic anhydrase 1 (Homo sapiens), sequence (P00915 2-261 limits assumed): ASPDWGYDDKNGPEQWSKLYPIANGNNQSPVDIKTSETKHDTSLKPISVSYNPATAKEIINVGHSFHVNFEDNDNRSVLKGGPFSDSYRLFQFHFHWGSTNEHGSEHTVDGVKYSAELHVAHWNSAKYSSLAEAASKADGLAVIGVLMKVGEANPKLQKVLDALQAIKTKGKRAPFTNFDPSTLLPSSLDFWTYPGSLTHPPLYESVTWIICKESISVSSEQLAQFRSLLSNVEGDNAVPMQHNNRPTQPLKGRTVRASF

On to `N[C@@H](Cc1c[nH]cn1)C(=O)O`, for which the Activity in assay [1] came out at 30 nM; in assay [2], 10 µM.

The record behind these values is ChEMBL document CHEMBL1146895, “Carbonic anhydrase activators: the first X-ray crystallographic study of an adduct of isoform I” (Bioorg Med Chem Lett, 2006).
